Measurements published in patent US6737383B1, “Herbicidal oxadiazolidines” (priority 1999, dated 2004).

Legend:
purple nutsedge = assay: Test B pre/postemergence purple nutsedge; type: in vivo, Cyperus rotundus
Method in brief: (§1)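 Test chemicals in a non-phytotoxic solvent mixture with surfactant were sprayed preemergence onto planted seeds and postemergence onto plants 2 to 18 cm tall (1- to 4-leaf stage). After twelve to sixteen days in a greenhouse, injury was visually rated against untreated controls from 0 (no effect) to 10 (complete control).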

blackgrass = assay: Test B pre/postemergence blackgrass; type: in vivo, Alopecurus myosuroides
Method in brief: as §1

surinam grass = assay: Test B pre/postemergence surinam grass; type: in vivo, Brachiaria decumbens; details: Postemergence
Method in brief: as §1

pigweed = assay: Test B pre/postemergence pigweed; type: in vivo, Amaranthus retroflexus
Method in brief: as §1

wheat = assay: Test B pre/postemergence wheat; type: in vivo, Triticum aestivum
Method in brief: as §1

giant foxtail = assay: Test B pre/postemergence giant foxtail; type: in vivo, Setaria faberii
Method in brief: as §1

sugar beet = assay: Test B pre/postemergence sugar beet; type: in vivo, Beta vulgaris
Method in brief: as §1

velvetleaf = assay: Test B pre/postemergence velvetleaf; type: in vivo, Abutilon theophrasti
Method in brief: as §1

cocklebur = assay: Test B pre/postemergence cocklebur; type: in vivo, Xanthium strumarium
Method in brief: as §1

morningglory = assay: Test B pre/postemergence morningglory; type: in vivo, Ipomoea hederacea
Method in brief: as §1

wild oat = assay: Test B pre/postemergence wild oat; type: in vivo, Avena fatua
Method in brief: as §1

soybean = assay: Test B pre/postemergence soybean; type: in vivo, Glycine max
Method in brief: as §1

rape = assay: Test B pre/postemergence rape; type: in vivo, Brassica napus
Method in brief: as §1

bedstraw = assay: Test B pre/postemergence bedstraw; type: in vivo, Galium aparine
Method in brief: as §1

corn = assay: Test B pre/postemergence corn; type: in vivo, Zea mays
Method in brief: as §1

crabgrass = assay: Test B pre/postemergence crabgrass; type: in vivo, Digitaria sanguinalis
Method in brief: as §1

[1] = Postemergence, Rate 31 g/ha, visual rating, scale 0 to 10 (0 no effect, 10 complete control)
[2] = Postemergence, Rate 62 g/ha, scale 0 to 10, 0 is no effect, 10 is complete control
[3] = Postemergence, Rate 125 g/ha, scale of 0 to 10 where 0 is no effect and 10 is complete control
[4] = Rate 62 g/ha, Preemergence, scale 0 to 10
[5] = Rate 250 g/ha, Postemergence, scale 0 to 10, 0 is no effect, 10 is complete control
[6] = Preemergence, Rate 31 g/ha, visual rating, scale 0 to 10 (0 no effect, 10 complete control)
[7] = Preemergence, Rate 250 g/ha, scale 0 (no effect) to 10 (complete control)
[8] = Rate 125 g/ha, Preemergence, scale 0 to 10 (0 no effect, 10 complete control)

In the case of CCOP(=O)(OCC)C(C)n1c(=O)on(C(=O)N(c2ccc(F)cc2F)C(C)C)c1=O (stereo not drawn) [Compound 776], the “Nutsedge plant response rating” value (purple nutsedge; [1]) is reported as 0, the “Plant response rating, Nutsedge” value (purple nutsedge; [2]) is reported as 0 and the “Nutsedge plant response rating” value (purple nutsedge; [3]) is reported as 0. For the same compound, the “Nutsedge plant response rating” value (purple nutsedge; [4]) was 0, the “Nutsedge plant response rating” value (purple nutsedge; [5]) was 0 and the “Blackgrass plant response rating” value (blackgrass; [1]) was 2. For the same compound, the “Plant response rating, Blackgrass” value (blackgrass; [2]) was 2, the “Blackgrass plant response rating” value (blackgrass; [3]) was 2 and the “Blackgrass plant response rating” value (blackgrass; [6]) was 0. The “Blackgrass plant response rating” value (blackgrass; [7]) was 2, the “Blackgrass plant response rating” value (blackgrass; [4]) was 0 and the “Blackgrass plant response rating” value (blackgrass; [8]) was 0. For the same compound, the “Blackgrass plant response rating” value (blackgrass; [5]) was 2, the “B. signalgrass plant response rating” value (surinam grass; Rate 31 g/ha, visual rating, scale 0 to 10 (0 no effect, 10 complete control)) was 0 and the “Plant response rating, B. signalgrass” value (surinam grass; Rate 62 g/ha, scale 0 to 10, 0 is no effect, 10 is complete control) was 0. For the same compound, the “B. signalgrass plant response rating” value (surinam grass; Rate 125 g/ha, scale of 0 to 10 where 0 is no effect and 10 is complete control) was 0, the “B. signalgrass plant response rating” value (surinam grass; Rate 250 g/ha, scale 0 to 10, 0 is no effect, 10 is complete control) was 0 and the “Redroot pigweed plant response rating” value (pigweed; [1]) was 0. The “Plant response rating, Redroot pigweed” value (pigweed; [2]) was 2, the “Redroot pigweed plant response rating” value (pigweed; [3]) was 2 and the “Redroot pigweed plant response rating” value (pigweed; [4]) was 0. For the same compound, the “Redroot pigweed plant response rating” value (pigweed; [8]) was 0, the “Redroot pigweed plant response rating” value (pigweed; [5]) was 2 and the “Wheat plant response rating” value (wheat; [1]) was 0. For the same compound, the “Plant response rating, Wheat” value (wheat; [2]) was 0, the “Wheat plant response rating” value (wheat; [4]) was 0 and the “Wheat plant response rating” value (wheat; [8]) was 2. For the same compound, the “Wheat plant response rating” value (wheat; [5]) was 0, the “Giant foxtail plant response rating” value (giant foxtail; [1]) was 2 and the “Plant response rating, Giant foxtail” value (giant foxtail; [2]) was 2. For the same compound, the “Giant foxtail plant response rating” value (giant foxtail; [3]) was 2, the “Giant foxtail plant response rating” value (giant foxtail; [6]) was 5 and the “Giant foxtail plant response rating” value (giant foxtail; [7]) was 9. For the same compound, the “Giant foxtail plant response rating” value (giant foxtail; [4]) was 9, the “Giant foxtail plant response rating” value (giant foxtail; [8]) was 9 and the “Giant foxtail plant response rating” value (giant foxtail; [5]) was 2. For the same compound, the “Sugarbeets plant response rating” value (sugar beet; [1]) was 0, the “Plant response rating, Sugarbeets” value (sugar beet; [2]) was 0 and the “Sugarbeets plant response rating” value (sugar beet; [4]) was 0. For the same compound, the “Sugarbeets plant response rating” value (sugar beet; [8]) was 0, the “Sugarbeets plant response rating” value (sugar beet; [5]) was 3 and the “Velvetleaf plant response rating” value (velvetleaf; [1]) was 2. The “Plant response rating, Velvetleaf” value (velvetleaf; [2]) was 3, the “Velvetleaf plant response rating” value (velvetleaf; [4]) was 0 and the “Velvetleaf plant response rating” value (velvetleaf; [8]) was 0. The “Velvetleaf plant response rating” value (velvetleaf; [5]) was 3, the “Cocklebur plant response rating” value (cocklebur; [1]) was 0 and the “Plant response rating, Cocklebur” value (cocklebur; [2]) was 0. The “Cocklebur plant response rating” value (cocklebur; [3]) was 0, the “Cocklebur plant response rating” value (cocklebur; [6]) was 0 and the “Cocklebur plant response rating” value (cocklebur; [5]) was 0. For the same compound, the “Morningglory plant response rating” value (morningglory; [1]) was 4, the “Plant response rating, Morningglory” value (morningglory; [2]) was 7 and the “Morningglory plant response rating” value (morningglory; [3]) was 7. For the same compound, the “Morningglory plant response rating” value (morningglory; [4]) was 0, the “Morningglory plant response rating” value (morningglory; [8]) was 2 and the “Wild oats plant response rating” value (wild oat; [1]) was 0. The “Plant response rating, Wild oats” value (wild oat; [2]) was 0, the “Wild oats plant response rating” value (wild oat; [4]) was 2 and the “Wild oats plant response rating” value (wild oat; [8]) was 2. The “Wild oats plant response rating” value (wild oat; [5]) was 0, the “Soybean plant response rating” value (soybean; [1]) was 1 and the “Plant response rating, Soybean” value (soybean; [2]) was 2. For the same compound, the “Soybean plant response rating” value (soybean; [4]) was 0, the “Soybean plant response rating” value (soybean; [8]) was 0 and the “Soybean plant response rating” value (soybean; [5]) was 2. For the same compound, the “Rape plant response rating” value (rape; [1]) was 0, the “Plant response rating, Rape” value (rape; [2]) was 2 and the “Rape plant response rating” value (rape; [3]) was 2. For the same compound, the “Rape plant response rating” value (rape; [4]) was 0, the “Rape plant response rating” value (rape; [8]) was 0 and the “Rape plant response rating” value (rape; [5]) was 2. The “Bedstraw plant response rating” value (bedstraw; [1]) was 0, the “Plant response rating, Bedstraw” value (bedstraw; [2]) was 0 and the “Bedstraw plant response rating” value (bedstraw; [3]) was 3. For the same compound, the “Bedstraw plant response rating” value (bedstraw; [6]) was 0, the “Bedstraw plant response rating” value (bedstraw; [7]) was 0 and the “Bedstraw plant response rating” value (bedstraw; [4]) was 0. For the same compound, the “Bedstraw plant response rating” value (bedstraw; [8]) was 0, the “Bedstraw plant response rating” value (bedstraw; [5]) was 3 and the “Corn plant response rating” value (corn; [1]) was 0. For the same compound, the “Plant response rating, Corn” value (corn; [2]) was 0, the “Corn plant response rating” value (corn; [3]) was 0 and the “Corn plant response rating” value (corn; [6]) was 0. For the same compound, the “Corn plant response rating” value (corn; [7]) was 1, the “Corn plant response rating” value (corn; [4]) was 0 and the “Corn plant response rating” value (corn; [8]) was 0. The “Corn plant response rating” value (corn; [5]) was 0, the “Crabgrass plant response rating” value (crabgrass; [1]) was 2 and the “Plant response rating, Crabgrass” value (crabgrass; [2]) was 2. The “Crabgrass plant response rating” value (crabgrass; [3]) was 2, the “Crabgrass plant response rating” value (crabgrass; [6]) was 5 and the “Crabgrass plant response rating” value (crabgrass; [7]) was 9. The “Crabgrass plant response rating” value (crabgrass; [4]) was 5, the “Crabgrass plant response rating” value (crabgrass; [8]) was 8 and the “Crabgrass plant response rating” value (crabgrass; [5]) was 2.
